Where a SMILES comes first, the peptide text is derived from it.
Key:
[1] = tested on: RG2, clone N32 glioblastoma in the right brain hemisphere; assay: Intracranial pressure in rats with implanted RG2-N32 glioblastoma after nasal peptide; assay type: in vivo, Fisher 344 rats
Description: (§1) Adult male Fisher 344 rats were purchased from Charles River, Germany. The body weight at the time for the experiments was 230-250 g. The animals had water and pelleted feed ad libitum. Permission to the experiments was granted by the Regional Animal Experiments Ethical Committee, and national and EU rules were followed.
Cultured cells of the established glioma cell line RG2, clone N32, were stereotactically deposited in the right striatum of the brain of adult Fisher 344 rats (A. T. Aas, A Brun, C. Blennow, S. Strömblad and L. G. Salford (1995). The RG2 glioma model. J. Neuro-Oncology 23, 175-183; R. F. Barth and B. Kauer ([…]). Rat brain tumor models in experimental neuro-oncology: the C6, 9L, T9, RG2, F98, BT4C, RT-2 and CNS-1 gliomas. (J Neuro-Oncology 94, 299-312). After 18-22 days, a tumor, fulfilling established criteria for glioblastoma, was demonstrable in the right hemisphere, invading adjacent brain parenchyma (FIGS. 1, 2). […] FIG. 4 is showing the implantation of pressure sensors (Samba 3200; Samba Sensors A B, V. Frölunda, Sweden), one in each hemisphere. The intracranial pressure was measured to be in the range of 25-50 mm Hg (FIG. 4), that means strikingly elevated as compared to normally 5.3±2.1 mm Hg (H.-A. Hansson, M. Al-Olama, E. Jennische, K. Gatzinsky and S. Lange (2012). The peptide AF-16 and the AF protein counteract intracranial hypertension. Acta Neurochir. Suppl. 114, 377-382). Eventually, the intracranial pressure exceed 50-60 mm Hg, resulting in herniation of the brain, dislocations and impaired blood circulation, and death (FIG. 5).
The intracranial pressure was raised both in the tumor affected right side and in the contralateral left side, and the pressure dropped to the same extent in either brain hemisphere. Concomitantly, any demonstrable neurological impairment resolved.
Cultured cells of the established glioma cell line RG2, clone N32, were stereotactically deposited in the right striatum of the brain of adult Fisher 344 rats as described in
After 18-22 days a tumor, fulfilling established criteria for glioblastoma, was demonstrable in the right hemisphere, invading adjacent brain parenchyma.
A single dose of the peptide AF-6 (1-2 mg/kg body weight, dissolved in water) was instilled in the nose of a Fisher rat with an experimental glioblastoma tumor of the RG2-N32 origin at day 21 after implantation. About 15 min later the intracranial pressure started to dropped from 25-27 mm Hg to 17.7 mm Hg (FIG. 7).

[2] = tested on: GL261 glioma tumor in the right brain hemisphere; assay: Intracranial / interstitial fluid pressure in mice with GL261 glioma after nasal peptide; assay type: in vivo, C57/BI/6 mice
Description: Adult C57/BI/6 mice were purchased from B & K, Sollentuna, Sweden. The body weight was 23 g and the animals had water and pelleted feed ad libitum. Permission to the experiments was granted by the Regional Animal Experiments Ethical Committee, and national and EU rules were followed.
The GL261 mouse glioma cell line was of C57/BI/6 origin and cultured in the Rausing laboratory, BMC, Lund University, according to an established protocol (K. Enell Smith, S. Fritzell, W. Badn, S. Eberstål, S. Janelidze, E. Visse, A. Darabi and P. Siesjö (2008). Cure of established GL261 mouse gliomas after combined immunotherapy with GM-CSF and IFNγ is mediated by both CD8^+ and CD4^+ T-cells. Int. J. Cancer 124, 630-637).
C57/BI/6 mice had each 5.000 GL261 glioma cells in 5 μL tissue culture medium stereo tactically deposited in deep brain structure in the right brain hemisphere. An expanding tumor was formed and had 22 days later a diameter of 3-5 mm.
The six AA peptide AF-6 (SEQ ID NO:2) (manufactured by solid phase synthesis by K J Ross-Petersen ApS, Copenhagen, with >95% purity and TFA as counter ion) was selected to be investigated for its ability to reduce the increased intracranial pressure (ICP) inevitably evolving at this stage of tumor development.
A mouse with a GL261 tumor in the right brain hemisphere was anaesthetized with isofluran and positioned in a stereotactic holder. […]

[3] = tested on: RG2, clone N32 glioblastoma tumor cell nuclei; assay: Uptake of tracer doxorubicin into glioblastoma cell nuclei of rats (fluorescence microscopy); assay type: in vivo, Fisher 344 rats
Description: The aim of this experiment was to investigate if treatment with AF-16 increased the penetration of a marker through the tumor cells membrane and subsequent entrance and distribution in their nuclei. Doxorubicin was selected as a tracer for the reason that it is an established cytotoxic drug with a molecular mass of 543.52 g/mol, i.e. being considered as a fairly low molecular mass substance. Further, doxorubicin has a red color and when exposed to light emits a red fluorescence. Doxorubicin is strongly intercalating with the DNA in cell nuclei. This means that if a red fluorescence is observed in a cell nucleus the marker has been reached its target, the tumor cells. It is known that glioblastoma cells, in humans as in animals, prevent the entrance of chemotherapeutic substances into the tumor cells, and consequently no beneficial effects are attained. The most important barrier to the drug is prevailing at the surface of the tumor cells.
as §1
Cultured cells of the established glioma cell line RG2, clone N32, were stereotactically deposited in the right striatum of the brain of adult Fisher 344 rats as described in Example 1. After 20 days a tumor, fulfilling established criteria for being a glioblastoma, was present in the right brain hemisphere of either rat.
AF-16, 1 mg per kg body weight, dissolved in water and administrated as a single dose in a volume of 10 μL, was instilled in the nostrils of anaesthetized Fisher rats. […] Cryostat microtome sections were prepared of the brains, and examined with the aid of fluorescence microscope.
That means that very few doxorubicin molecules entered the tumor cells.

[4] = tested on: experimentally induced glioblastoma tumor cell nuclei; assay: Uptake and binding of doxorubicin to tumor cell nuclei in mice with experimentally induced glioblastoma; assay type: in vivo; conditions: additional experiments
[5] = single nasal instillation 1-4 mg/kg body weight
[6] = AF-16 1 mg per kg body weight nasally, 1 h before i.v. doxorubicin 10 mg per kg, sacrificed 30 min later
[7] = AF-16 4 mg/kg bw nasally 1 h prior to i.v. doxorubicin 10 mg/kg bw, brains removed 30 min later

| Compound | side effects ([1]; single nasal dose 1-2 mg/kg body weight) | side effects ([2]; nasal 5 mg per kg body weight) | effect on raised intracranial pressure (summary statement) ([1]; animals with experimentally induced glioblastoma, tumor and contralateral hemisphere) | start of intracranial pressure decrease after nasal administration ([1]; nasal AF-16 4 mg/kg bw) | intracranial pressure attained ([1]; nasal AF-16 4 mg/kg bw, in half an hour, either brain hemisphere) | duration of the beneficial effects on intracranial pressure [1, 5] | time to reduction of the high intracranial pressure [1, 5] | intracranial pressure after reduction (acceptable level) ([1]; single nasal instillation 1-4 mg/kg body weight in 10 μL water, baseline 25-50 mm Hg, both hemispheres) | demonstrable neurological impairment ([1]; single nasal instillation 1-4 mg/kg body weight, concomitant with pressure drop) | effect on raised intracranial pressure (statement in words) ([2]; mice with experimentally induced glioblastoma) | doxorubicin staining of the tumor cell nuclei [3, 6] | proportion of tumor cells labeled by doxorubicin [3, 6] | frequency of doxorubicin-stained tumor cell nuclei vs vehicle pretreatment [3, 7] | intensity of doxorubicin staining of tumor cell nuclei vs vehicle pretreatment [3, 7] | effect on uptake of doxorubicin by tumor cell nuclei (summary statement) ([3]; animals with experimentally induced glioblastoma) | effect on uptake and binding of doxorubicin to tumor cell nuclei [4] |
| --- | --- | --- | --- | --- | --- | --- | --- | --- | --- | --- | --- | --- | --- | --- | --- | --- |
| C[C@@H](O)[C@H](NC(=O)[C@H](CCCCN)NC(=O)[C@H](CO)NC(=O)[C@H](Cc1c[nH]cn1)NC(=O)[C@@H](N)CS)C(=O)N[C@@H](CCCNC(=N)N)C(=O)O [AF-6, CHSKTR] (H-CHSKTR-OH) | No side effects could be disclosed | No side effects were noticed | – | – | – | – | – | – | – | – | – | – | – | – | – | – |
| VCHSKTRSNPENNVGL (Variant (2)..(2) C may be replaced by S; Variant (3)..(3) H may be replaced by R or K; Variant (4)..(4) S may be replaced by L; Variant (6)..(6) T may be replaced by A) [AF-16, a peptide composed of the amino acids …, fragment of antisecretory factor protein] | – | – | lower the raised intracranial pressure | about 12 minutes | ~20 mm Hg | 4 to 6 h | 15 to 30 min | ≤ 20 mm Hg | resolved | reduced the high intracranial pressure | strong red staining | a large proportion of these cells were labeled | increased | increased | efficiently improved the uptake | facilitated the uptake and binding of doxorubicin to tumor cell nuclei |
